Data reported in ChEMBL document CHEMBL3763036, “Structural optimization of non-nucleoside DNA methyltransferase inhibitor as anti-cancer agent” (Bioorg Med Chem Lett, 2016).

What was measured:
NCI-H292 = test: Antiproliferative activity against human NCI-H292 cells; type: functional, cell-based
[1] = biological target: DNA (cytosine-5)-methyltransferase 1 (Homo sapiens) (UniProt P26358); test: Inhibition of DNMT1 in human NCI-H292 cells at 50 uM after 48 hrs by Western blot analysis relative to control; type: cell-based
DNA (cytosine-5)-methyltransferase 1 (Homo sapiens), sequence (P26358 whole entry): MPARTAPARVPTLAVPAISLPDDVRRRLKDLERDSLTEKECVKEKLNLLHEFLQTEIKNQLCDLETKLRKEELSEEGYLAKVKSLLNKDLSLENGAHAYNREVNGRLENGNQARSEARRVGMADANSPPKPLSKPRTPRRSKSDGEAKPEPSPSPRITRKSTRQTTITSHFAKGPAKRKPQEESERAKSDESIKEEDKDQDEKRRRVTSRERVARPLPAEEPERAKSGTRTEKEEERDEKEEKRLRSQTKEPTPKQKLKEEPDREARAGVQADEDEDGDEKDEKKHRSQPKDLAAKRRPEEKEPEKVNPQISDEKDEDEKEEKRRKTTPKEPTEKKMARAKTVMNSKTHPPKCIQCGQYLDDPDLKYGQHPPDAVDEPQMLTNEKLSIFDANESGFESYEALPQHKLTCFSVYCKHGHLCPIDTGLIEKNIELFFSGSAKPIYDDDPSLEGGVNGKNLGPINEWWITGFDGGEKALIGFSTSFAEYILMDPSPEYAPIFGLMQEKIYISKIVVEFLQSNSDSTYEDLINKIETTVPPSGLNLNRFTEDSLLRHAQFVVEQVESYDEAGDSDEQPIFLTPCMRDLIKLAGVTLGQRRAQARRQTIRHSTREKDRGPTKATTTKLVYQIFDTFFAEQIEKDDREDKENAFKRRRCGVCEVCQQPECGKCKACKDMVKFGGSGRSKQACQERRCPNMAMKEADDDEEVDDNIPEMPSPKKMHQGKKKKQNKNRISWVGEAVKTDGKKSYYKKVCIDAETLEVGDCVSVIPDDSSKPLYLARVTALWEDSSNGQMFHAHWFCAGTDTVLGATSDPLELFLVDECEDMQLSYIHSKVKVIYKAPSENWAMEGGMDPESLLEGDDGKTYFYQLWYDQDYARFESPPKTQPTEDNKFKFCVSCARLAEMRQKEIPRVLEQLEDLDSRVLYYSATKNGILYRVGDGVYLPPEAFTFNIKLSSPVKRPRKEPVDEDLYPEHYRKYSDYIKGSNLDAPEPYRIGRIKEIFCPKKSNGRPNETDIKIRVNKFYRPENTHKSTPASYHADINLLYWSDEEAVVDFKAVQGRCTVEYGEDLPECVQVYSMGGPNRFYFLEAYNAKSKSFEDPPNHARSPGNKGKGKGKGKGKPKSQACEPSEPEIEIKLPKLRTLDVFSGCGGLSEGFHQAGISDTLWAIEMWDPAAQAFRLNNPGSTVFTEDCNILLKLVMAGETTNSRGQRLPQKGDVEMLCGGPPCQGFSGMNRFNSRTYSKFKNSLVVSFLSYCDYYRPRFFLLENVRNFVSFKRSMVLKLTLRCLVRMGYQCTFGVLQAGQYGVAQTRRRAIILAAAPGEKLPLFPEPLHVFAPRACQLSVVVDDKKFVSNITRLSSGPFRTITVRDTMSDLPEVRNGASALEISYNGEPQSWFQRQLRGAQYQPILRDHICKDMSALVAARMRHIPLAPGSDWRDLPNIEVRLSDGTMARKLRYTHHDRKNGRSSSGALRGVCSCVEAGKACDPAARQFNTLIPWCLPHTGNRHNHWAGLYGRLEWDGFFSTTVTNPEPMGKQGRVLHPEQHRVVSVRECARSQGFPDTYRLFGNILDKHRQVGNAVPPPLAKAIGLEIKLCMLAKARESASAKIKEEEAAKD

[2] = biological target: DNA (cytosine-5)-methyltransferase 1 (Homo sapiens) (UniProt P26358); test: Inhibition of DNMT1 in human NCI-H292 cells at 100 uM after 48 hrs by Western blot analysis relative to control; type: cell-based

| IC50 (NCI-H292) [µM] | fold change (FC) [1] | fold change (FC) [2] | Structure (SMILES) |
| --- | --- | --- | --- |
| 28.5 | – | – | O=C1/C(=C/c2ccc(O)cc2)NC(=S)N1c1ccc(Cl)cc1 |
| 17.9 | 0.25 | – | O=C(NCC1CCCCC1)c1cccc(N2C(=O)N/C(=C\c3ccc(O)cc3)C2=O)c1 |
| > 200 | – | – | O=C(O)c1cccc(N2C(=O)N/C(=C\c3ccc(O)cc3)C2=O)c1 |
| 25.5 | 0.01 | – | O=C1N/C(=C\c2ccc(O)cc2)C(=O)N1c1ccc(I)cc1 |
| 41.3 | – | 1.08 | O=C1N/C(=C\c2ccc(O)cc2)C(=O)N1c1ccc(Cl)cc1 |
| > 200 | – | – | O=C1N/C(=C\c2ccc(O)cc2)C(=O)N1c1cccc(I)c1 |
| > 200 | – | – | CCOC(=O)c1ccc(N2C(=O)N/C(=C\c3ccc(O)cc3)C2=O)cc1 |
| > 200 | – | – | O=C1N/C(=C\c2ccc3ccccc3c2)C(=O)N1c1ccc(Cl)cc1 |
| > 200 | – | – | O=C(c1ccc(N2C(=O)N/C(=C\c3ccc(O)cc3)C2=O)cc1)N1CCCC1 |
| > 200 | – | – | O=C(NCC1CCCCC1)c1ccc(N2C(=O)N/C(=C\c3ccc(O)cc3)C2=O)cc1 |
| 69.9 | – | – | O=C1N/C(=C\c2ccc(O)cc2)C(=O)N1c1ccc(Br)cc1 |
| 19.7 | – | – | O=C1/C(=C/c2ccc(O)cc2)NC(=S)N1c1ccc(I)cc1 |
| > 200 | – | – | O=C(NCc1ccccc1)c1ccc(N2C(=O)N/C(=C\c3ccc(O)cc3)C2=O)cc1 |
| > 200 | – | – | COc1cc(/C=C2\NC(=O)N(c3ccc(Cl)cc3)C2=O)cc(OC)c1OC |
| 32.1 | 1.19 | – | COc1ccc(/C=C2\NC(=O)N(c3ccc(Cl)cc3)C2=O)cc1 |
| > 200 | – | – | O=C(Nc1ccc(Cl)cc1)c1ccc(N2C(=O)N/C(=C\c3ccc(O)cc3)C2=O)cc1 |
| 46.6 | – | – | O=C1N/C(=C\c2ccc(Br)cc2)C(=O)N1c1ccc(Cl)cc1 |
| > 200 | – | – | O=C(O)c1ccc(N2C(=O)N/C(=C\c3ccc(O)cc3)C2=O)cc1 |
| > 200 | – | – | O=C1N/C(=C\c2ccc(O)cc2)C(=O)N1c1cccc(Br)c1 |
| > 200 | – | – | Cc1cccc(N2C(=O)N/C(=C\c3ccc(O)cc3)C2=O)c1 |
| 27.9 | 0.32 | – | Cc1ccc(N2C(=O)N/C(=C\c3ccc(O)cc3)C2=O)cc1 |
| 23.5 | 0.27 | – | O=C(NCc1ccccc1)c1cccc(N2C(=O)N/C(=C\c3ccc(O)cc3)C2=O)c1 |
| > 200 | – | – | COc1ccc(N2C(=O)N/C(=C\c3ccc(O)cc3)C2=O)cc1 |
| > 200 | – | – | COc1cccc(N2C(=O)N/C(=C\c3ccc(O)cc3)C2=O)c1 |
| 125 | – | – | O=C(Nc1ccc(Cl)cc1)c1cccc(N2C(=O)N/C(=C\c3ccc(O)cc3)C2=O)c1 |
| 35.6 | 0.99 | – | O=C1N/C(=C\c2ccc(Cl)cc2)C(=O)N1c1ccc(Cl)cc1 |
| > 200 | – | – | O=C(c1cccc(N2C(=O)N/C(=C\c3ccc(O)cc3)C2=O)c1)N1CCCC1 |
